Data: patent EP1061945B1, “USE OF VIP ANALOGUES FOR PREVENTING AND TREATING BRAIN DAMAGE IN HUMAN BABIES” (ASSISTANCE PUBLIQUE - HOPITAUX DE PARIS, priority 1998, dated 2002)
Entries after “also recorded” stand apart in the source; their conditions may differ. Bridge positions count the residues as written; N and C are the ends. Square brackets hold non-standard residues; d marks the D form. Peptide text beside a SMILES is read from it. Nle = CCCC[C@H](N)C(=O)O

Test system: lésions excitotoxiques induites par l'iboténate dans le cerveau de souris en développement
Test: Ibotenate-induced excitotoxic brain lesions in newborn mice (intracerebral ibotenate at JN or JN+5)
Format: in vivo
Text: Le modèle chez la souris obtenu par injection intracérébrale d'iboténate reproduit : • des lésions du cortex cérébral, semblables à celles observées chez le foetus humain entre 16 et 25 semaines de grossesse, lorsque l'iboténate est injecté le jour de la naissance (JN), • des lésions du cortex cérébral semblables aux lésions du nouveau-né humain à terme, lorsque l'injection d'iboténate est effectuée à JN + 5 et • des lésions de la substance blanche, semblables aux lésions du prématuré humain, lorsque l'iboténate est injecté à JN + 5.
Dans l'ensemble de ces figures : * = p<0,05, ** = p<0,01 (ANOVA + test de comparaison multiple de Dunnett par rapport aux contrôles (iboténate seul)).
Les souris sont préparées comme décrit dans J Clin. Investig. précité.
Le VIP est injecté par voie intracérébrale à raison de 1 µg (dose par animal) et les VIP cycliques ont été injectés par voie intrapéritonéale à raison de 10 µg (dose par animal).

[1] = ibotenate at JN+5, peptide by intracerebral route
[2] = ibotenate at JN+5, peptide by intraperitoneal route

Structure (SMILES) | delay of administration after the ibotenate injection within which the effects at JN+5 are observed (JN+5, peptide given after ibotenate) | taille des lésions corticales [1] | taille des lésions de substance blanche [1] | taille des lésions corticales (ibotenate at JN+5, peptide by intraperitoneal (parenteral) route) | taille des lésions de substance blanche [2] | taille des lésions corticales (ibotenate at JN, given at the same time, cyclic VIP intraperitoneal, 10 µg per animal)
CCCC[C@H](NC(=O)[C@H](CCC(N)=O)NC(=O)[C@H](CCCCN)NC(=O)[C@H](CCCNC(=N)N)NC(=O)[C@H](CC(C)C)NC(=O)[C@H](CCCCN)NC(=O)[C@@H](NC(=O)[C@H](Cc1ccc(O)cc1)NC(=O)[C@H](CC(N)=O)NC(=O)[C@H](CCC(=O)O)NC(=O)[C@@H](NC(=O)[C@H](Cc1ccccc1)NC(=O)[C@@H](NC(=O)[C@H](C)NC(=O)[C@H](CC(=O)O)NC(=O)[C@H](CO)NC(=O)[C@H](Cc1c[nH]cn1)NC(C)=O)C(C)C)[C@@H](C)O)[C@@H](C)O)C(=O)N[C@@H](C)C(=O)N[C@@H](C)C(=O)N[C@@H](CCCCN)C(=O)N[C@H]1CCCCNC(=O)C[C@@H](C(=O)N[C@@H](CC(C)C)C(=O)N[C@@H](CCCCN)C(=O)N[C@@H](CCCCN)C(=O)NCC(=O)NCC(=O)N[C@H](C(N)=O)[C@@H](C)O)NC(=O)[C@H](CC(N)=O)NC(=O)[C@H](CC(C)C)NC(=O)[C@H](Cc2ccc(O)cc2)NC1=O [SEQ ID NO:2] (Ac-HSDAVFTENYTKLRKQ[Nle]AAKKYLNDLKKGGT-NH2; lactam 21-25) | 8 à 12 heures | n'est significative que lorsque l'analogue cyclique du VIP de SEQ ID NO:2 est administré par voie parentérale; also recorded: une certaine protection du cortex cérébral | diminution de la taille des lésions de substance blanche significative; also recorded: protège significativement la substance blanche | significative; also recorded: une certaine protection du cortex cérébral, surtout en intrapéritonéale | diminution de la taille des lésions de substance blanche significative; also recorded: activité significative; also recorded: protège significativement la substance blanche | 
CCCC[C@H](NC(=O)[C@H](CCCNC(=N)N)NC(=O)[C@H](CCCCN)NC(=O)[C@H](CCCNC(=N)N)NC(=O)[C@H](CC(C)C)NC(=O)[C@H](CCCCN)NC(=O)[C@@H](NC(=O)[C@H](Cc1ccc(O)cc1)NC(=O)[C@H](CC(N)=O)NC(=O)[C@H](CCC(=O)O)NC(=O)[C@@H](NC(=O)[C@H](Cc1ccccc1)NC(=O)[C@@H](NC(=O)[C@H](C)NC(=O)[C@H](CC(=O)O)NC(=O)[C@H](CO)NC(=O)[C@H](Cc1c[nH]cn1)NC(C)=O)C(C)C)[C@@H](C)O)[C@@H](C)O)C(=O)N[C@@H](C)C(=O)N[C@@H](C)C(=O)N[C@@H](CCCCN)C(=O)N[C@H]1CCCCNC(=O)C[C@@H](C(=O)N[C@@H](CC(C)C)C(=O)N[C@@H](CCCCN)C(=O)N[C@@H](CCCCN)C(=O)NCC(=O)NCC(=O)N[C@H](C(N)=O)[C@@H](C)O)NC(=O)[C@H](CC(N)=O)NC(=O)[C@H](CC(C)C)NC(=O)[C@H](Cc2ccc(O)cc2)NC1=O [SEQ ID NO:3] (Ac-HSDAVFTENYTKLRKR[Nle]AAKKYLNDLKKGGT-NH2; lactam 21-25) |  |  |  |  | reproduit les effets neuroprotecteurs de l'analogue cyclique de VIP de SEQ ID NO:2 | reproduit les effets neuroprotecteurs de l'analogue cyclique de VIP de SEQ ID NO:2
